Measurements reported in patent US5441941A, “1,2-dihydroellipticines with activity against CNS specific cancer” (The United States of America as represented by the …, priority 1993, dated 1995).

What was measured:
[1] = test system: LXFL 529; test: cells; settings: Homo sapiens
[2] = test system: HCC-2998; test: cells; settings: Homo sapiens
[3] = test system: KM20L2; test: cells; settings: Homo sapiens
[4] = test system: Human tumor cell lines; test: NCI in vitro screen, overall result; settings: Tables I and II
[5] = test system: CCRF-CEM; test: NCI in vitro screen, SRB percent growth, Leukemia
[6] = test system: M19-MEL; test: NCI in vitro screen, SRB percent growth, Melanoma
[7] = test system: SK-MEL-2; test: NCI in vitro screen, SRB percent growth, Melanoma
[8] = test system: SK-MEL-5; test: NCI in vitro screen, SRB percent growth, Melanoma
[9] = test system: UACC-257; test: NCI in vitro screen, SRB percent growth, Melanoma
[10] = test system: SF-268; test: NCI in vitro screen, SRB percent growth, CNS Cancer
[11] = test system: SF-539; test: as above
[12] = test system: COLO 205; test: NCI in vitro screen, SRB percent growth, Colon Cancer
[13] = test system: KM12; test: as above
[14] = test system: IGROV1; test: NCI in vitro screen, SRB percent growth, Ovarian Cancer
[15] = test system: SK-OV-3; test: as above
[16] = test system: CNS cancer cell lines; test: NCI in vitro screen, overall result on CNS cancer cell lines; settings: Tables I and II
[17] = test system: HOP-62; test: NCI in vitro screen, SRB percent growth, Non-Small Cell Lung Cancer
[18] = LXFL 529, read-out: Percent Growth
[19] = HCC 2998, read-out: Percent Growth
[20] = KM-20L2, read-out: Percent Growth
[21] = Log10 Concentration -4.0, 100 µM
[22] = Log10 Concentration -7.0, 0.1 µM

SMILES: Cc1ccc2[nH]c3c(C)c4c(c(C)c3c2c1)CN(C)C=C4 [Formula XI]
- GI50 ([1]; LXFL 529): 0.353 µM
- CC50 ([1]; LXFL 529, read-out: LC-50): 9.23 µM
- activity at 0.01 µM [1, 18]: 78%
- activity at 0.1 µM [1, 18]: 68%
- activity at 1 µM [1, 18]: 35%
- activity at 10 µM [1, 18]: -53%
- activity at 100 µM [1, 18]: -84%
- IC (TGI) ([1]; LXFL 529, read-out: TGI): 2.51 µM
- GI50 ([2]; HCC 2998): 1.69 µM
- CC50 ([2]; HCC 2998, read-out: LC-50): 7.89 µM
- activity at 0.01 µM [2, 19]: 105%
- activity at 0.1 µM [2, 19]: 108%
- activity at 1 µM [2, 19]: 84%
- activity at 10 µM [2, 19]: -65%
- activity at 100 µM [2, 19]: -91%
- IC (TGI) ([2]; HCC 2998, read-out: TGI): 3.65 µM
- GI50 ([3]; KM-20L2): 2.22 µM
- CC50 ([3]; KM-20L2, read-out: LC-50): 38 µM
- activity at 0.01 µM [3, 20]: 106%
- activity at 0.1 µM [3, 20]: 95%
- activity at 1 µM [3, 20]: 73%
- activity at 10 µM [3, 20]: 7%
- activity at 100 µM [3, 20]: -91%
- IC (TGI) ([3]; KM-20L2, read-out: TGI): 11.7 µM
- effect against many kinds of cancer [4]: effective against many kinds of cancer
- Percent Growth [5, 21]: -35%
- Percent Growth ([5]; Log10 Concentration -5.0): 13%
- Percent Growth ([5]; Log10 Concentration -6.0, 1 µM): 74%
- Percent Growth [5, 22]: 94%
- Percent Growth ([5]; Log10 Concentration -8.0): 102%
- TGI ([5]; PG=0): 18 µM
- GI50 ([5]; PG=+50): 2.48 µM
- CC50 ([5]; read-out: LC-50, PG=-50): > 100 µM
- Percent Growth [6, 21]: -93%
- Percent Growth ([6]; Log10 Concentration -5.0): -91%
- Percent Growth ([6]; Log10 Concentration -6.0, 1 µM): 38%
- Percent Growth [6, 22]: 93%
- Percent Growth ([6]; Log10 Concentration -8.0): 94%
- TGI ([6]; PG=0): 1.98 µM
- GI50 ([6]; PG=+50): 0.605 µM
- CC50 ([6]; read-out: LC-50, PG=-50): 4.83 µM
- Percent Growth [7, 21]: -94%
- Percent Growth ([7]; Log10 Concentration -5.0): -92%
- Percent Growth ([7]; Log10 Concentration -6.0, 1 µM): 94%
- Percent Growth [7, 22]: 103%
- Percent Growth ([7]; Log10 Concentration -8.0): 98%
- TGI ([7]; PG=0): 3.2 µM
- GI50 ([7]; PG=+50): 1.72 µM
- CC50 ([7]; read-out: LC-50, PG=-50): 5.96 µM
- Percent Growth [8, 21]: -90%
- Percent Growth ([8]; Log10 Concentration -5.0): -79%
- Percent Growth ([8]; Log10 Concentration -6.0, 1 µM): 77%
- Percent Growth [8, 22]: 94%
- Percent Growth ([8]; Log10 Concentration -8.0): 92%
- TGI ([8]; PG=0): 3.11 µM
- GI50 ([8]; PG=+50): 1.49 µM
- CC50 ([8]; read-out: LC-50, PG=-50): 6.49 µM
- Percent Growth [9, 21]: -87%
- Percent Growth ([9]; Log10 Concentration -5.0): -8%
- Percent Growth ([9]; Log10 Concentration -6.0, 1 µM): 86%
- Percent Growth [9, 22]: 90%
- Percent Growth ([9]; Log10 Concentration -8.0): 97%
- TGI ([9]; PG=0): 8.23 µM
- GI50 ([9]; PG=+50): 2.43 µM
- CC50 ([9]; read-out: LC-50, PG=-50): 34.3 µM
- Percent Growth [10, 21]: -83%
- Percent Growth ([10]; Log10 Concentration -5.0): -94%
- Percent Growth ([10]; Log10 Concentration -6.0, 1 µM): -39%
- Percent Growth [10, 22]: 96%
- Percent Growth ([10]; Log10 Concentration -8.0): 101%
- TGI ([10]; PG=0): 0.514 µM
- GI50 ([10]; PG=+50): 0.218 µM
- CC50 ([10]; read-out: LC-50, PG=-50): 1.6 µM
- Percent Growth [11, 21]: -90%
- Percent Growth ([11]; Log10 Concentration -5.0): -58%
- Percent Growth ([11]; Log10 Concentration -6.0, 1 µM): 6%
- Percent Growth [11, 22]: 92%
- Percent Growth ([11]; Log10 Concentration -8.0): 99%
- TGI ([11]; PG=0): 1.23 µM
- GI50 ([11]; PG=+50): 0.305 µM
- CC50 ([11]; read-out: LC-50, PG=-50): 7.56 µM
- Percent Growth [12, 21]: -28%
- Percent Growth ([12]; Log10 Concentration -5.0): -23%
- Percent Growth ([12]; Log10 Concentration -6.0, 1 µM): 24%
- Percent Growth [12, 22]: 92%
- Percent Growth ([12]; Log10 Concentration -8.0): 119%
- TGI ([12]; PG=0): 3.2 µM
- GI50 ([12]; PG=+50): 0.416 µM
- CC50 ([12]; read-out: LC-50, PG=-50): > 100 µM
- Percent Growth [13, 21]: -93%
- Percent Growth ([13]; Log10 Concentration -5.0): -48%
- Percent Growth ([13]; Log10 Concentration -6.0, 1 µM): 38%
- Percent Growth [13, 22]: 95%
- Percent Growth ([13]; Log10 Concentration -8.0): 97%
- TGI ([13]; PG=0): 2.78 µM
- GI50 ([13]; PG=+50): 0.622 µM
- CC50 ([13]; read-out: LC-50, PG=-50): 11 µM
- Percent Growth [14, 21]: -73%
- Percent Growth ([14]; Log10 Concentration -5.0): -15%
- Percent Growth ([14]; Log10 Concentration -6.0, 1 µM): 30%
- Percent Growth [14, 22]: 85%
- Percent Growth ([14]; Log10 Concentration -8.0): 97%
- TGI ([14]; PG=0): 4.71 µM
- GI50 ([14]; PG=+50): 0.438 µM
- CC50 ([14]; read-out: LC-50, PG=-50): 39.9 µM
- Percent Growth [15, 21]: -58%
- Percent Growth ([15]; Log10 Concentration -5.0): -16%
- Percent Growth ([15]; Log10 Concentration -6.0, 1 µM): 36%
- Percent Growth [15, 22]: 59%
- Percent Growth ([15]; Log10 Concentration -8.0): 87%
- TGI ([15]; PG=0): 4.87 µM
- GI50 ([15]; PG=+50): 0.25 µM
- CC50 ([15]; read-out: LC-50, PG=-50): 63.3 µM
- effect against CNS cancer cell lines [16]: particularly effective against CNS cancer cell lines
- Percent Growth [17, 21]: -89%
- Percent Growth ([17]; Log10 Concentration -5.0): -39%
- Percent Growth ([17]; Log10 Concentration -6.0, 1 µM): 11%
- Percent Growth [17, 22]: 119%
- Percent Growth ([17]; Log10 Concentration -8.0): 121%
- TGI ([17]; PG=0): 1.64 µM
- GI50 ([17]; PG=+50): 0.433 µM
- CC50 ([17]; read-out: LC-50, PG=-50): 16.3 µM
